The subject of data set [1] is Gastric (SNU-16) Patch number (ATCC CRL-5822). Nature of the data set: SRB cytotoxicity assay, gastric cancer cells SNU-16. The class given is cell-based. On the procedure: (§1) A- Cell culture. The cells were obtained from the Egyptian Holding Company for Biological Products & Vaccines (VACSERA), Giza, Egypt, then maintained in the tissue culture unit. […] The cells were maintained as monolayer culture by serial sub‐culturing. Cell culture reagents were obtained from Lonza (Basel, Switzerland).
(§2) Sulforhodamine B(SRB) assay method was used to evaluate cytotoxicity. […] After 24 h, cells were incubated for 72 h with various concentrations of the tested compounds. Following 72 h treatments, the cells would be fixed with 10% trichloroacetic acid for 1 h at 4°C. Wells were stained for 10 minutes at room temperature with 0.4% SRBC (Sulphorhodamine B) dissolved in 1% acetic acid. After that, the plates were air-dried for 24 h. At the same time, the dye was dissolved in Tris‐HCl and left for 5 min on the shaker at 1600 rpm. Each well’s optical density (OD) was measured spectrophotometrically at 564 nm; by using an ELISA microplate reader (ChroMate‐4300, FL, USA). The IC50 values were calculated according to the equation for Boltzman sigmoidal concentration-response curve using the nonlinear regression fitting models (Graph Pad, Prism Version 9).
On the technique in general: The SRB assay estimates cell density from bound dye.

In data set [2] the test system is COLO205 cells (colon cancer). The experiment in a line: SRB cytotoxicity assay, colon cancer cells COLO205. The class given is cell-based. On the procedure: as §1, §2
For data set [3], the system named is normal cell. The experiment in a line: Cytotoxicity on a normal cell (for selectivity index). The class given is cell-based. Conditions: for IC50: column head names no cell, normal cell according to b79; for SI (selectivity index): ratio IC50 on normal cell / IC50 on cancer cell line. On the procedure: Sulforhodamine B(SRB) assay method was used to evaluate cytotoxicity. Exponentially growing cells were collected using 0.25% Trypsin‐EDTA seeded in 96‐well plates at 1000‐2000 cells/well in RBMI‐1640 supplemented medium. After 24 h, cells were incubated for 72 h with various concentrations of the tested compounds. Following 72 h treatments, the cells would be fixed with 10% trichloroacetic acid for 1 h at 4°C. Wells were stained for 10 minutes at room temperature with 0.4% SRBC (Sulphorhodamine B) dissolved in 1% acetic acid. After that, the plates were air-dried for 24 h. At the same time, the dye was dissolved in Tris‐HCl and left for 5 min on the shaker at 1600 rpm. Each well’s optical density (OD) was measured spectrophotometrically at 564 nm; by using an ELISA microplate reader (ChroMate‐4300, FL, USA). The IC50 values were calculated according to the equation for Boltzman sigmoidal concentration-response curve using the nonlinear regression fitting models (Graph Pad, Prism Version 9).
The compounds show good selectivity toward cancerous cells, represented by the “selectivity index.” The selectivity index was previously used to measure selective cytotoxic activity. The selectivity index (SI) can be calculated from the ratio between IC50 of the compound on a normal cell and the compound on a cancer cell line. For example, the SI of compounds 6d, 10a, 10d, and 16 are 86.98, 76.82, 74.32, and 54.13, respectively.

The mark [4] stands for this setting: Homo sapiens, SNU-16, 72 h incubation.
Setting [5] is: Homo sapiens, COLO 205, 72 h incubation.

These results are taken from paper PMC9977057, “Indenyl-thiazole and indenyl-formazan derivatives: Synthesis, anticancer screening studies, molecular-docking, and pharmacokinetic/ molin-spiration properties” (PLOS ONE, 2023).

For orientation: IC50 means the concentration needed to halve the response being measured. Broadly, the melting point is the temperature, or range, at which the solid turns liquid. With `CCOC(=O)C(=NNc1ccccc1)NN=C1CCc2cc(Br)ccc21` [compound 15, Ethyl 2-(2-(5-bromo-2,3-dihydro-1H-inden-1-ylidene)hydrazineyl)-2-(2-phenyl-hydrazineylidene)acetate], the melting point was 174 to 176 °C. The IC50 in data set [1] (setting [4]) amounted to 16.6 ± 0.38 µM. In data set [2] (setting [5]), inhibition was half-maximal at 13.63 ± 0.04 µM (IC50). Besides, in data set [3], the IC50 is over 100 µM.

`NN=C1CCc2cc(Br)ccc21` [compound 4, (5-Bromo-indan-1-ylidene)-hydrazine] returned a melting point of 120 °C. Besides, half-maximal inhibition in data set [1] (setting [4]) (IC50) required 23.2 ± 0.204 µM. The compound also returned a concentration for half-maximal inhibition (IC50) in data set [2] (setting [5]) of 8.167 ± 0.07 µM. In data set [3], this compound gave an IC50 of over 100 µM.

Regarding `Cc1ccc(N=Nc2sc(NN=C3CCc4cc(Br)ccc43)nc2C)cc1` [6c, 2-(2-(5-Bromo-2,3-dihydro-1H-inden-1-ylidene)hydrazineyl)-4-methyl-5-(p-tolyldiazenyl)thiazole], the melting point was 130 to 132 °C. Further, the IC50 in data set [1] (setting [4]) was 12.89 ± 0.076 µM. Further, in data set [2] (setting [5]), the IC50 stood at 7.576 ± 0.07 µM. In data set [3], the IC50 was over 100 µM.

In turn, `CC(=O)C(=NNc1ccccc1)NN=C1CCc2cc(Br)ccc21` [14a, N’-(5-bromo-2,3-dihydro-1H-inden-1-ylidene)-2-oxo-N’’-phenylpropanehydrazonhydrazide] gave a melting point of 190 °C. This compound registered an IC50 in data set [1] (setting [4]) of 14.9 ± 0.3 µM. Half-maximal inhibition in data set [2] (setting [5]) (IC50) was put at 11.27 ± 0.046 µM. In addition, the IC50 in data set [3] is over 100 µM.

For the compound `Cc1ccc(-c2csc(NN=C3CCc4cc(Br)ccc43)n2)cc1` [10b, N-(5-Bromo-indan-1-ylidene)-N’-(4-p-tolyl-thiazol-2-yl)-hydrazine], the melting point is 233 to 234 °C. This compound also registered an IC50 in data set [1] (setting [4]) of 18.3 ± 0.39 µM. For the same compound, the IC50 in data set [2] (setting [5]) came out at 12.08 ± 0.006 µM. The same compound yielded an IC50 in data set [3] of over 100 µM.

Compound `Cc1cccc(N=Nc2sc(NN=C3CCc4cc(Br)ccc43)nc2C)c1` [6b, 2-(2-(5-Bromo-2,3-dihydro-1H-inden-1-ylidene)hydrazineyl)-4-methyl-5-(m-tolyldiazenyl)-thiazole] came in with a melting point of 128 to 129 °C. The IC50 in data set [1] (setting [4]) was 12.28 ± 0.03 µM. Moreover, the IC50 in data set [2] (setting [5]) is 9.813 ± 0.005 µM. Moreover, in data set [3], the IC50 was over 100 µM.

Regarding `Brc1ccc2c(c1)CCC2=NNc1nc(-c2ccccc2)cs1` [10a, N-(5-Bromo-indan-1-ylidene)-N’-(4-phenyl-thiazol-2-yl)-hydrazine], the figures for the IC50 in data set [1] (setting [4]), in data set [2] (setting [5]) and in data set [3] were 20 ± 0.64 µM, 6.301 ± 0.008 µM and 485 ± 7.89 µM, respectively. Further, the “SI (selectivity index)” value in data set [3] is reported as 76.82.

For the compound `N.N.[Cl][Pt][Cl]` [Cisplatin, reference compound], the results for the IC50 in data set [1] (72 h incubation), in data set [2] (72 h incubation) and in data set [3] were 11.27 ± 0.076 µM, 9.13 ± 0.07 µM and 548 ± 61.2 µM, respectively.

As to `NC(=S)NN=C1CCc2cc(Br)ccc21` [compound 3, 2-(5-Bromo-2,3-dihydro-1H-inden-1-ylidene)hydrazine-1-carbothioamide], the melting point lay in the range of 227 to 230 °C. Further, in data set [1] (setting [4]), it took 19.01 ± 0.133 µM to reach half-maximal inhibition (IC50). For the same compound, in data set [2] (setting [5]), inhibition was half-maximal at 14.1 ± 0.04 µM (IC50). The compound further yielded an IC50 in data set [3] of over 100 µM.

For the compound `O=C(Nc1ccccc1)C(=NNc1ccccc1)NN=C1CCc2cc(Br)ccc21` [compound 16, 2-(2-(5-Bromo-2,3-dihydro-1H-inden-1-ylidene)hydrazineyl)-N-phenyl-2-(2-phenyl-hydrazineylidene)acetamide], the IC50 in data set [1] (setting [4]) amounted to 9.699 ± 0.0726 µM; in data set [2] (setting [5]), 13.04 ± 0.025 µM; in data set [3], 525 ± 36.2 µM. In data set [3], the “SI (selectivity index)” value was 54.13.

In turn, `Cc1nc(NN=C2CCc3cc(Br)ccc32)sc1N=Nc1ccc(Cl)cc1` [6e, 2-(2-(5-Bromo-2,3-dihydro-1H-inden-1-ylidene)hydrazineyl)-5-((4-chlorophenyl)diazenyl)-4-methylthiazole] had a melting point of 177 to 178 °C. In addition, in data set [1] (setting [4]), 26.19 ± 0.12 µM corresponded to half-maximal inhibition (IC50). In data set [2] (setting [5]), this compound yielded an IC50 of 7.276 ± 0.03 µM. Besides, the IC50 in data set [3] was over 100 µM.

In turn, `CC(=O)/C(=N\Nc1ccc(Cl)cc1)N/N=C1\CCc2cc(Br)ccc21` [14b, N’-(5-bromo-2,3-dihydro-1H-inden-1-ylidene)-N’’-(4-chlorophenyl)-2-oxopropanehydrazon-hydrazide] returned a melting point of 197 to 198 °C. In data set [1] (setting [4]), this compound registered an IC50 of 13.8 ± 0.69 µM. The same compound came in with an IC50 in data set [2] (setting [5]) of 10.61 ± 0.09 µM. The 50% inhibitory concentration (IC50) in data set [3] is over 100 µM.

`Cc1nc(N/N=C2\CCc3cc(Br)ccc32)sc1/N=N/c1ccccc1` [6a, 2-(2h4(5-Bromo-2,3-dihydro-1H-inden-1-ylidene)hydrazineyl)-4-methyl-5-(phenyldiazenyl)-thiazole] had a melting point of 220 to 222 °C. The IC50 in data set [1] (setting [4]) was 21.79 ± 0.076 µM. Further, in data set [2] (setting [5]), the IC50 was determined as 17.14 ± 0.12 µM. In data set [3], this compound displayed an IC50 of over 100 µM.

In the case of `Brc1ccc(-c2csc(NN=C3CCc4cc(Br)ccc43)n2)cc1` [10c, N-(5-Bromo-indan-1-ylidene)-N’-[4-(4-bromo-phenyl)-thiazol-2-yl]-hydrazine], the melting point lay within 230 to 232 °C. This compound also had an IC50 in data set [1] (setting [4]) of 26.8 ± 0.6 µM. Also, the IC50 in data set [2] (setting [5]) came out at 13.81 ± 0.025 µM. The compound further registered a half-inhibitory concentration (IC50) in data set [3] of over 100 µM.

As to `Cc1nc(NN=C2CCc3cc(Br)ccc32)sc1N=Nc1cccc(Cl)c1` [6d, 2-(2-(5-Bromo-2,3-dihydro-1H-inden-1-ylidene)hydrazineyl)-5-((3-chlorophenyl)-diazenyl)-4-methylthiazole], the results for the IC50 in data set [1] (setting [4]), in data set [2] (setting [5]) and in data set [3] were 19.79 ± 0.129 µM, 6.958 ± 0.04 µM and 605 ± 35.2 µM, respectively. In data set [3], the “SI (selectivity index)” value is 86.98.

As for `Clc1ccc(-c2csc(NN=C3CCc4cc(Br)ccc43)n2)cc1` [10d, N-(5-Bromo-indan-1-ylidene)-N’-[4-(4-chloro-phenyl)-thiazol-2-yl]-hydrazine], the IC50 was found to be 7.576 ± 0.075 µM in data set [1] (setting [4]), 12.16 ± 0.06 µM in data set [2] (setting [5]) and 563 ± 44.2 µM in data set [3]. In data set [3], the “SI (selectivity index)” value is listed as 74.32.

As for `CCN(CC)CCNC(=O)c1c(C)[nH]c(/C=C2\C(=O)Nc3ccc(F)cc32)c1C` [sunitinib, reference compound], the IC50 in data set [1] (setting [4]) is 8.45 ± 0.023 µM; in data set [2] (setting [5]), 11.27 ± 0.033 µM; in data set [3] it was 378 ± 31.8 µM.
